Reference: PubChem BioAssay AID330 (DTP/NCI, 2004)
Values joined by “and” are separate entries in the source; they are usually repeats but may differ in a detail not shown here. Equal entries are not always repeated. Inconclusive results and toxic doses are left out.

System: P388 leukemia ip, CD2F1 mice, survival T/C
Assay: NCI In Vivo Anticancer Drug Screen. Data for tumor model P388 Leukemia (intraperitoneal) in CD2F1 (CDF1) mice
Details: endpoint: median survival time, schedule: Q01DX009 (ip), vehicle: distilled water + Tween-80, higher = longer survival
Method in brief: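 Mice carrying the transplanted tumor received test compound or vehicle. Survival was recorded in each group, and the value is the treated-group measurement divided by that of the vehicle-treated control group.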

Question: With `O=C(NC1CCC1)OCc1c(COC(=O)NC2CCC2)c(-c2ccc(Cl)c(Cl)c2)n2c1CCC2` as the compound, how does the T/C (dose: 3.13 mg/kg/injection) read?
Answer: 117 % of control

Question: What about the T/C (dose: 12.5 mg/kg/injection) of the same compound?
Answer: 155 % of control

Question: And the T/C (dose: 25.0 mg/kg/injection)?
Answer: 173 % of control and 194 % of control
